Measured values from ChEMBL document CHEMBL1133554, “Synthesis, structure-activity relationships, and pharmacological profile of 9-amino-4-oxo-1-phenyl-3,4,6,7-tetrahydro[1,4]diazepino[6, 7,1-hi]indoles: discovery of potent, selective phosphodiesterase type 4 inhibitors” (J Med Chem, 2000).

What was measured:
Phosphodiesterase 4 [1] = target: T1, Phosphodiesterase 4 (Homo sapiens, UniProt P27815+Q08499+Q07343+Q08493); assay: Inhibition of phosphodiesterase type 4 isozyme (PDE4) from the U937 human cell line.; assay type: cell-based; conditions: u-937
Phosphodiesterase 3 = Phosphodiesterase 3 (Homo sapiens, UniProt Q14432+Q13370); assay: Inhibition of phosphodiesterase 3 (PDE3) isolated from the dog aorta; assay type: protein assay, Canis lupus familiaris; conditions: target entry is the homologue from another species
[2] = target: Phosphodiesterase, PDE1/PDE5 (Homo sapiens, UniProt O76074+P54750+Q01064+Q14123); assay: Inhibition of phosphodiesterase 1/5 isozyme (PDE1/5) mixture isolated from the guinea pig trachea.; set-up: species or system Cavia porcellus; conditions: target entry is the homologue from another species
[3] = In vitro inhibition of TNF-alpha release from human peripheral blood monocytes; assay type: functional
Rattus norvegicus = assay: In vivo inhibition of antigen induced eosinophil recruitment in Brown-Norvway Rats at 10 mg/kg peroral dose; assay type: functional; conditions: route oral
[4] = In vitro inhibition of TNF-alpha-release from human whole blood; assay type: functional
Phosphodiesterase 4 [5] = target: T1, Phosphodiesterase 4; assay: PDE4-related emetic activity in ferrets after intravenous administration at 10 mg/kg; assay type: functional, organism-based; set-up: dose 10 mg/kg; conditions: Mustela putorius furo, target entry is the homologue from another species
[6] = In vivo inhibition of LPS-stimulated TNF-alpha release in Wistar rats at 10 mg/kg oral dose; assay type: functional; conditions: Rattus norvegicus
Phosphodiesterase 4 [7] = target: T1, Phosphodiesterase 4; assay: PDE4-related emetic activity in ferrets after intravenous administration at 40 mg/kg; assay type: functional, organism-based; set-up: dose 40 mg/kg; conditions: Mustela putorius furo, target entry is the homologue from another species

| Compound | IC50 (Phosphodiesterase 4 [1]) [µM] | IC50 (Phosphodiesterase 3) [µM] | IC50 [2] [µM] | IC50 [3] [nM] | ED50 (Rattus norvegicus) [mg/kg] | IC50 [4] [nM] | R+V (Phosphodiesterase 4 [5]) | inhibition in vivo at 10 mg/kg [6] [%] | R+V (Phosphodiesterase 4 [7]) | inhibition in vivo at 10 mg/kg (Rattus norvegicus) [%] | ED50 [6] [mg/kg] |
| --- | --- | --- | --- | --- | --- | --- | --- | --- | --- | --- | --- |
| CC(=O)Nc1cc2c3c(c1)C(c1ccccc1)=N[C@@H](NC(=O)c1cc(Cl)c(N)c(Cl)c1)C(=O)N3CC2 | 0.09 | 4.5 | 3.5 | – | – | – | – | – | – | – | – |
| Nc1c(Cl)cc(C(=O)N[C@@H]2N=C(c3ccccc3)c3cc(N4CCCC4)cc4c3N(CC4)C2=O)cc1Cl | 0.08 | 10.6 | 39.2 | – | – | – | – | – | – | – | – |
| O=C(N[C@@H]1N=C(c2ccccc2)c2cc([N+](=O)[O-])cc3c2N(CC3)C1=O)c1cccnc1 | 10.8 | – | – | – | – | – | – | – | – | – | – |
| Cc1cc2c3c(c1)C(c1ccccc1)=N[C@@H](NC(=O)c1ccncc1)C(=O)N3CC2 | – | 35.8 | 73.4 | 990 | 5.06 | 61000 | 0 90 min | -25 | – | – | – |
| COc1cc2c3c(c1)C(c1ccccc1)=N[C@@H](NC(=O)c1cnc4ccccc4c1)C(=O)N3CC2 | 1.7 | 19.4 | 16.1 | – | – | – | – | – | – | – | – |
| O=C(N[C@@H]1N=C(c2ccccc2)c2cccc3c2N(CC3)C1=O)c1c(Cl)cncc1Cl | 4.7 | > 100 | > 100 | – | – | – | – | – | – | – | – |
| O=C(N[C@@H]1N=C(c2ccccc2)c2cccc3c2N(CC3)C1=O)c1cccnc1 | 10.5 | > 100 | > 100 | – | – | – | – | – | – | – | – |
| Cc1cc2nnc(C(=O)N[C@@H]3N=C(c4ccccc4)c4cc(N5CCCC5)cc5c4N(CC5)C3=O)c(C)n2n1 | 0.2 | 22.2 | > 100 | – | – | – | – | – | – | – | – |
| O=C(N[C@@H]1N=C(c2ccccc2)c2cc([N+](=O)[O-])cc3c2N(CC3)C1=O)c1cc2ccccc2cn1 | > 100 | – | – | – | – | – | – | – | – | – | – |
| COc1ccc(C2CNC(=O)C2)cc1OC1CCCC1 (stereo not given) [ROLIPRAM] | – | > 100 | – | 83 | 4.66 | 940 | – | 94 | – | – | – |
| Nc1cc2c3c(c1)C(c1ccccc1)=N[C@@H](NC(=O)c1ccncc1)C(=O)N3CC2 | 0.5 | > 100 | > 100 | 480 | 1.89 | 1090 | – | -71 | 0 90 min | – | – |
| O=C(N[C@@H]1N=C(c2ccccc2)c2cc(N3CCCC3)cc3c2N(CC3)C1=O)c1ccncc1 | 1.4 | 18 | 34 | – | – | – | – | – | – | – | – |
| Cc1cc2c3c(c1)C(c1ccccc1)=N[C@@H](NC(=O)c1cc(Cl)c(N)c(Cl)c1)C(=O)N3CC2 | 0.3 | 10.3 | > 100 | – | – | – | – | – | – | -21 | – |
| COc1ccccc1C(=O)N[C@@H]1N=C(c2ccccc2)c2cc(N)cc3c2N(CC3)C1=O | 0.5 | > 100 | 93.2 | 123 | – | 1060 | – | – | – | – | – |
| O=C(N[C@@H]1N=C(c2ccccc2)c2cccc3c2N(CC3)C1=O)c1cc2ccccc2cn1 | 5.5 | > 100 | > 100 | – | – | – | – | – | – | – | – |
| Cc1cc2c3c(c1)C(c1ccccc1)=N[C@@H](NC(=O)c1c(Cl)cncc1Cl)C(=O)N3CC2 | 1 | 19.5 | 38 | – | 63.7 | – | – | – | – | – | – |
| COc1cc2c3c(c1)C(c1ccccc1)=N[C@@H](NC(=O)c1nnc4cc(C)nn4c1C)C(=O)N3CC2 | 2.7 | 46 | 14.1 | – | – | – | – | – | – | – | – |
| Cc1cc2nnc(C(=O)N[C@@H]3N=C(c4ccccc4)c4cc(N)cc5c4N(CC5)C3=O)c(C)n2n1 | 0.2 | 48.6 | 72 | 260 | 1.8 | 750 | – | – | – | – | – |

| Compound | IC50 (Phosphodiesterase 4 [1]) [µM] | IC50 (Phosphodiesterase 3) [µM] | IC50 [2] [µM] | IC50 [3] [nM] | ED50 (Rattus norvegicus) [mg/kg] | IC50 [4] [nM] | R+V (Phosphodiesterase 4 [5]) | inhibition in vivo at 10 mg/kg [6] [%] | R+V (Phosphodiesterase 4 [7]) | inhibition in vivo at 10 mg/kg (Rattus norvegicus) [%] | ED50 [6] [mg/kg] |
| --- | --- | --- | --- | --- | --- | --- | --- | --- | --- | --- | --- |
| Nc1cnccc1C(=O)N[C@@H]1N=C(c2ccccc2)c2cccc3c2N(CC3)C1=O | 16.2 | 90 | > 100 | – | – | – | – | – | – | – | – |
| CN(C)c1cc2c3c(c1)C(c1ccccc1)=N[C@@H](NC(=O)c1cc(Cl)c(N)c(Cl)c1)C(=O)N3CC2 | 0.2 | 3.2 | 5.3 | – | – | – | – | – | – | – | – |
| Nc1cc2c3c(c1)C(c1ccccc1)=N[C@@H](NC(=O)c1cnc4ccccc4c1)C(=O)N3CC2 | 0.2 | 53.9 | 90.7 | – | – | – | – | – | – | – | – |
| CC(C)(C)OC(=O)Nc1cnccc1C(=O)N[C@@H]1N=C(c2ccccc2)c2cccc3c2N(CC3)C1=O | 6.2 | 54.7 | 53.3 | – | – | – | – | – | – | – | – |
| Nc1cc2c3c(c1)C(c1ccccc1)=N[C@@H](NC(=O)c1cc(Cl)c(N)c(Cl)c1)C(=O)N3CC2 | 0.04 | 51.6 | > 100 | 11 | – | 438 | – | – | – | -61.8 | – |
| Nc1cc2c3c(c1)C(c1ccccc1)=N[C@@H](NC(=O)c1ccncc1N)C(=O)N3CC2 | 0.7 | > 100 | > 100 | 80 | – | 398 | 3.5 90 min | -89 | – | -82 | – |
| COc1cc2c3c(c1)C(c1ccccc1)=N[C@@H](NC(=O)c1ccncc1)C(=O)N3CC2 | 4.4 | 40.8 | 16.1 | – | – | – | – | – | – | – | – |
| Cc1cc2c3c(c1)C(c1ccccc1)=N[C@@H](NC(=O)c1nnc4cc(C)nn4c1C)C(=O)N3CC2 | 0.7 | > 100 | > 100 | 5350 | 33.9 | > 30000 | – | – | – | – | – |
| CC(C)(C)OC(=O)Nc1cnccc1C(=O)N[C@@H]1N=C(c2ccccc2)c2cc(N)cc3c2N(CC3)C1=O | – | 58.2 | 67.7 | – | 5.03 | – | 0 90 min | -87 | – | – | – |
| CC(=O)Nc1cc2c3c(c1)C(c1ccccc1)=N[C@@H](NC(=O)c1ccncc1)C(=O)N3CC2 | 0.7 | 70 | 30.1 | – | – | – | – | – | – | – | – |
| COc1ccccc1C(=O)N[C@@H]1N=C(c2ccccc2)c2cc(C)cc3c2N(CC3)C1=O | 1.3 | 28.8 | 50.6 | – | – | – | – | – | – | – | – |
| Nc1ccc(C(=O)N[C@@H]2N=C(c3ccccc3)c3cc(N)cc4c3N(CC4)C2=O)cc1 | 0.69 | 86.8 | 93.2 | 443 | 10.8 | 1520 | 0 90 min | -71 | – | – | – |
| O=C(N[C@@H]1N=C(c2ccccc2)c2cccc3c2N(CC3)C1=O)c1ccncc1 | 20.5 | > 100 | > 100 | – | – | – | – | – | – | – | – |
| Nc1cc2c3c(c1)C(c1ccccc1)=N[C@@H](NC(=O)c1cccnc1)C(=O)N3CC2 | 0.27 | > 100 | > 100 | 340 | 3.2 | 1240 | – | – | 0 90 min | – | 2.8 |
| Nc1cc2c3c(c1)C(c1ccccc1)=N[C@@H](NC(=O)c1cc4ccccc4cn1)C(=O)N3CC2 | 0.1 | 48.5 | > 100 | 48 | – | 3370 | – | -16 | – | -62.9 | – |
| Nc1cc2c3c(c1)C(c1ccccc1)=N[C@@H](NC(=O)c1c(Cl)cncc1Cl)C(=O)N3CC2 | 0.2 | 80 | > 100 | 38 | – | 213 | – | – | – | – | – |
| Cc1cc2c3c(c1)C(c1ccccc1)=N[C@@H](NC(=O)c1cc4ccccc4cn1)C(=O)N3CC2 | – | > 100 | > 100 | – | – | – | – | – | – | – | – |
| COc1ccc([C@]2(C#N)CC[C@@H](C(=O)O)CC2)cc1OC1CCCC1 [CILOMILAST] | – | – | – | – | – | 7300 | 59.5 90 min | – | – | – | 3 |
